Experimental data reported in patent US9296757B2, “Substituted benzothienopyrimidines” (BAYER PHARMA AKTIENGESELLSCHAFT, priority 2012, dated 2016).

target: human full-length MKNK1 (Homo sapiens (Human), UniProt Q9BUB5, T344D); assay: MKNK1 kinase high ATP assay (TR-FRET); assay type: biochemical; conditions: high ATP (2 mM final), 15 min preincubation with enzyme
How it was run: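 GST-tagged full-length MKNK1 (T344D), insect-cell expressed, preincubated 15 min at 22 °C with compound, then reacted 30 min at 22 °C with 2 mM ATP and 0.06 μM biotinylated peptide in HEPES pH 7.5 buffer (final concentrations). Phospho-peptide detected by TR-FRET (665/620 nm ratio), normalised to no-inhibitor and no-enzyme controls.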

Sequence of human full-length MKNK1 (Q9BUB5 other isoform, or with tags, fused parts or gaps T344D): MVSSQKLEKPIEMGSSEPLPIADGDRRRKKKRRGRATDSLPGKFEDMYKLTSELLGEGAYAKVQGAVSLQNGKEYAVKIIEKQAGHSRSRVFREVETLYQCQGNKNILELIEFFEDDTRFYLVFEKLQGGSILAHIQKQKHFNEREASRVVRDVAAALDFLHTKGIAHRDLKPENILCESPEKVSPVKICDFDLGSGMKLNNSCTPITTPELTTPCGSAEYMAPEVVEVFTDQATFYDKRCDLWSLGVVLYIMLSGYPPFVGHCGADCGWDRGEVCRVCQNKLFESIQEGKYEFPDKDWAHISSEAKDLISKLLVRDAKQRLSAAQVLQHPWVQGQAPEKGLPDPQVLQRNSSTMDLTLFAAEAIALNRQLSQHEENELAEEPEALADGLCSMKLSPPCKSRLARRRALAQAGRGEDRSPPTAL

| SMILES | IC50 |
| --- | --- |
| O=C(C1CCc2c(sc3ncnc(Nc4ccc5[nH]c(=O)sc5c4)c23)C1)N1CCN(Cc2ccc3c(c2)OCO3)CC1 (racemic) [Example 44, (RS)-6-[(7-{[4-(1,3-benzodioxol-5-ylmethyl)piperazin-1-yl]carbonyl}-5,6,7,8-tetrahydro[1]benzothieno[2,3-d]pyrimidin-4-yl)amino]-1,3-benzothiazol-2(3H)-one] | 67 nM |
| CC(C)NC(=O)C1CCc2c(sc3ncnc(Nc4ccc5[nH]c(=O)sc5c4)c23)C1 (racemic) [Example 5, (RS)—N-Isopropyl-4-[(2-oxo-2,3-dihydro-1,3-benzothiazol-6-yl)amino]-5,6,7,8-tetrahydro[1]benzothieno[2,3-d]pyrimidine-7-carboxamide] | 36 nM |
| CN1CCN(C(=O)C2CCc3c(sc4ncnc(Nc5ccc6[nH]c(=O)sc6c5)c34)C2)CC1CCO (racemic) [Example 81, 6-{[(7RS)-7-{[(3RS)-3-(2-hydroxyethyl)-4-methylpiperazin-1-yl]carbonyl}-5,6,7,8-tetrahydro[1]benzothieno[2,3-d]pyrimidin-4-yl]amino}-1,3-benzothiazol-2(3H)-one] | 34 nM |
| CC(=O)N(C)C1CCN(C(=O)C2CCc3c(sc4ncnc(Nc5ccc6[nH]c(=O)sc6c5)c34)C2)C1 (racemic) [Example 61, N-methyl-N-[(3RS)-1-({(7RS)-4-[(2-oxo-2,3-dihydro-1,3-benzothiazol-6-yl)amino]-5,6,7,8-tetrahydro[1]benzothieno[2,3-d]pyrimidin-7-yl}carbonyl)pyrrolidin-3-yl]acetamide] | 32 nM |
| CN(CCN1CCOCC1)C(=O)C1CCc2c(sc3ncnc(Nc4ccc5[nH]c(=O)sc5c4)c23)C1 (racemic) [Example 82, (RS)-N-methyl-N-[2-(morpholin-4-yl)ethyl]-4-[(2-oxo-2,3-dihydro-1,3-benzothiazol-6-yl)amino]-5,6,7,8-tetrahydro[1]benzothieno[2,3-d]pyrimidine-7-carboxamide] | 46 nM |
| CC1CN(C(=O)C2CCc3c(sc4ncnc(Nc5ccc6[nH]c(=O)sc6c5)c34)C2)CC(C)O1 (racemic) [Example 68, 6-{[(7RS)-7-{[(2RS,6RS)-2,6-dimethylmorpholin-4-yl]carbonyl}-5,6,7,8-tetrahydro[1]benzothieno[2,3-d]pyrimidin-4-yl]amino}-1,3-benzothiazol-2(3H)-one] | 32 nM |
| O=C(NCc1ccccc1)C1CCc2c(sc3ncnc(Nc4ccc5[nH]c(=O)sc5c4)c23)C1 (racemic) [Example 9, (RS)—N-Benzyl-4-[(2-oxo-2,3-dihydro-1,3-benzothiazol-6-yl)amino]-5,6,7,8-tetrahydro[1]benzothieno[2,3-d]pyrimidine-7-carboxamide] | 9 nM |
| O=C(NCC1CCc2c(sc3ncnc(Nc4ccc5[nH]c(=O)sc5c4)c23)C1)[C@@H](O)Cc1ccccc1 (mixture of isomers) [Example 23, (2R)-2-Hydroxy-N-({(7RS)-4-[(2-oxo-2,3-dihydro-1,3-benzothiazol-6-yl)amino]-5,6,7,8-tetrahydro[1]benzothieno[2,3-d]pyrimidin-7-yl}methyl)-3-phenylpropanamide] | 43 nM |
| CN(CCCO)C(=O)C1CCc2c(sc3ncnc(Nc4ccc5[nH]c(=O)sc5c4)c23)C1 (racemic) [Example 67, (RS)-N-(3-hydroxypropyl)-N-methyl-4-[(2-oxo-2,3-dihydro-1,3-benzothiazol-6-yl)amino]-5,6,7,8-tetrahydro[1]benzothieno[2,3-d]pyrimidine-7-carboxamide] | 62 nM |
| O=C(NCC1CC1)C1CCc2c(sc3ncnc(Nc4ccc5[nH]c(=O)sc5c4)c23)C1 (racemic) [Example 12, (RS)—N-(Cyclopropylmethyl)-4-[(2-oxo-2,3-dihydro-1,3-benzothiazol-6-yl)amino]-5,6,7,8-tetrahydro[1]benzothieno[2,3-d]pyrimidine-7-carboxamide] | 48 nM |
| CN1CCN(C(=O)C2CCc3c(sc4ncnc(Nc5ccc6[nH]c(=O)sc6c5)c34)C2)CC1 (racemic) [Example 29, (RS)-6-({7-[(4-Methylpiperazin-1-yl)carbonyl]-5,6,7,8-tetrahydro[1]benzothieno[2,3-d]pyrimidin-4-yl}amino)-1,3-benzothiazol-2(3H)-one] | 48 nM |
| NCC1CCc2c(sc3ncnc(Nc4ccc5[nH]c(=O)sc5c4)c23)C1 (racemic) [Example 20, (RS)-6-{[7-(Aminomethyl)-5,6,7,8-tetrahydro[1]benzothieno[2,3-d]pyrimidin-4-yl]amino}-1,3-benzothiazol-2(3H)-one] | 103 nM |
| O=C(Nc1ccccc1)C1CCc2c(sc3ncnc(Nc4ccc5[nH]c(=O)sc5c4)c23)C1 (racemic) [Example 8, (RS)-4-[(2-Oxo-2,3-dihydro-1,3-benzothiazol-6-yl)amino]-N-phenyl-5,6,7,8-tetrahydro[1]benzothieno[2,3-d]pyrimidine-7-carboxamide] | 33 nM |
| CN(C)C(=O)C1CCc2c(sc3ncnc(Nc4ccc5[nH]c(=O)sc5c4)c23)C1 (racemic) [Example 13, (RS)—N,N-Dimethyl-4-[(2-oxo-2,3-dihydro-1,3-benzothiazol-6-yl)amino]-5,6,7,8-tetrahydro[1]benzothieno[2,3-d]pyrimidine-7-carboxamide] | 41 nM |
| CCNC(=O)C1CCc2c(sc3ncnc(Nc4ccc5[nH]c(=O)sc5c4)c23)C1 (racemic) [Example 3, (RS)—N-Ethyl-4-[(2-oxo-2,3-dihydro-1,3-benzothiazol-6-yl)amino]-5,6,7,8-tetrahydro[1]benzothieno[2,3-d]pyrimidine-7-carboxamide] | 39 nM |
| O=C(NCc1cccc(F)c1)C1CCc2c(sc3ncnc(Nc4ccc5[nH]c(=O)sc5c4)c23)C1 (racemic) [Example 14, (RS)—N-(3-Fluorobenzyl)-4-[(2-oxo-2,3-dihydro-1,3-benzothiazol-6-yl)amino]-5,6,7,8-tetrahydro[1]benzothieno[2,3-d]pyrimidine-7-carboxamide] | 25 nM |
| COC1CCCN(C(=O)C2CCc3c(sc4ncnc(Nc5ccc6[nH]c(=O)sc6c5)c34)C2)C1 (racemic) [Example 84, 6-{[(7RS)-7-{[(3RS)-3-methoxypiperidin-1-yl]carbonyl}-5,6,7,8-tetrahydro[1]benzothieno[2,3-d]pyrimidin-4-yl]amino}-1,3-benzothiazol-2(3H)-one] | 30 nM |
| [N-]=[N+]=NCC1CCc2c(sc3ncnc(Nc4ccc5[nH]c(=O)sc5c4)c23)C1 (racemic) [Example 19, (RS)-6-{[7-(Azidomethyl)-5,6,7,8-tetrahydro[1]benzothieno[2,3-d]pyrimidin-4-yl]amino}-1,3-benzothiazol-2(3H)-one] | 93 nM |
| O=C(NCC(F)(F)F)C1CCc2c(sc3ncnc(Nc4ccc5[nH]c(=O)sc5c4)c23)C1 (racemic) [Example 15, (RS)-4-[(2-oxo-2,3-dihydro-1,3-benzothiazol-6-yl)amino]-N-(2,2,2-trifluoroethyl)-5,6,7,8-tetrahydro[1]benzothieno[2,3-d]pyrimidine-7-carboxamide] | 85 nM |
| COCCN1CCN(C(=O)C2CCc3c(sc4ncnc(Nc5ccc6[nH]c(=O)sc6c5)c34)C2)CC1 (racemic) [Example 72, (RS)-6-[(7-{[4-(2-methoxyethyl)piperazin-1-yl]carbonyl}-5,6,7,8-tetrahydro[1]benzothieno[2,3-d]pyrimidin-4-yl)amino]-1,3-benzothiazol-2(3H)-one] | 44 nM |
| CCCCN(C)C(=O)C1CCc2c(sc3ncnc(Nc4ccc5[nH]c(=O)sc5c4)c23)C1 (racemic) [Example 41, (RS)-N-butyl-N-methyl-4-[(2-oxo-2,3-dihydro-1,3-benzothiazol-6-yl)amino]-5,6,7,8-tetrahydro[1]benzothieno[2,3-d]pyrimidine-7-carboxamide] | 21 nM |
| CC(C)(O)C(=O)NCC1CCc2c(sc3ncnc(Nc4ccc5[nH]c(=O)sc5c4)c23)C1 (racemic) [Example 25, (RS)-2-Hydroxy-2-methyl-N-({4-[(2-oxo-2,3-dihydro-1,3-benzothiazol-6-yl)amino]-5,6,7,8-tetrahydro[1]benzothieno[2,3-d]pyrimidin-7-yl}methyl)propanamide] | 42 nM |
| O=C(NCCC(F)(F)F)C1CCc2c(sc3ncnc(Nc4ccc5[nH]c(=O)sc5c4)c23)C1 (racemic) [Example 7, (RS)-4-[(2-Oxo-2,3-dihydro-1,3-benzothiazol-6-yl)amino]-N-(3,3,3-trifluoropropyl)-5,6,7,8-tetrahydro[1]benzothieno[2,3-d]pyrimidine-7-carboxamide] | 42 nM |
| COc1cc2[nH]c(=O)sc2cc1Nc1ncnc2sc3c(c12)CCC(C(=O)NC(C)C)C3 (racemic) [Example 31] | 4 nM |
| CCCCN(CC#N)C(=O)C1CCc2c(sc3ncnc(Nc4cc5sc(=O)[nH]c5cc4OC)c23)C1 (racemic) [Example 88, (RS)—N-Butyl-N-(cyanomethyl)-4-[(5-methoxy-2-oxo-2,3-dihydro-1,3-benzothiazol-6-yl)amino]-5,6,7,8-tetrahydro[1]benzothieno[2,3-d]pyrimidine-7-carboxamide] | 1 nM |
| CC1CCc2c(sc3ncnc(Nc4ccc5[nH]c(=O)sc5c4)c23)C1 (racemic) [Example 17, (RS)-6-[(7-Methyl-5,6,7,8-tetrahydro[1]benzothieno[2,3-d]pyrimidin-4-yl)amino]-1,3-benzothiazol-2(3H)-one] | 128 nM |
| CC1CCN(C(=O)C2CCc3c(sc4ncnc(Nc5ccc6[nH]c(=O)sc6c5)c34)C2)CC1 (racemic) [Example 50, (RS)-6-({7-[(4-methylpiperidin-1-yl)carbonyl]-5,6,7,8-tetrahydro[1]benzothieno[2,3-d]pyrimidin-4-yl}amino)-1,3-benzothiazol-2(3H)-one] | 43 nM |
